Laboratory results from patent publication US20100248255A1, “NOVEL PEPTIDES” (KYOWA HAKKO KOGYO CO., LTD, priority 2005, published 2010).
Where two headings read alike, the source gives them in different places. No end group written: not given here.

Assays:
[1] = system: antiserum (rabbit, Peptide 7-KLH conjugate as antigen); test: Binding specificity of antiserum by competitive RIA with [125I]-labeled Peptide 1
Description: As controls, reactions that use RIA buffer instead of the antiserum to measure non-specific binding, and reactions […] that use RIA buffer instead of VGF-derived peptide solutions to measure the maximum binding level were carried out. Reactions for non-specific binding were performed in quadruplicates, and the other reactions were performed in duplicates, and for each of the reactants, the immune complex was precipitated as in the above-mentioned antibody titer measurements, and its radioactivity (cpm) was measured. The average radioactivity of non-specific binding reaction is defined as non-specific binding level N, the radioactivity value for each VGF-derived peptide addition reaction is defined as Y, and the radioactivity value of maximum binding reaction is defined as Z. The percentage ratio (B/B0) of antiserum specific binding level (B) with peptide addition to the maximum binding level (B0), was determined using the following formula.
B/B0 (%)={(Y−N)/(Z−N)}×100
Accordingly, the amount of peptide that achieves 50% B/B0, more specifically, the amount of peptide that yields 50% inhibition of the maximum binding level, was used as an indicator of the peptide binding activity to the antiserum.
The amounts of peptide/tube used for performing the measurements were 0.5, 1, 2, 4, 8, 16, 32, 64, 128, 256, 512 and 1024 fmol for Peptide 1; 1, 2, 4, 8, 16, 32, 64, 128, 256, 512 and 1024 fmol for Peptide 2; 1, 3.3, 10, 33, 100, 333, 1000, 3300, 10,000, 33,000, 100,000, 333,000 and 1,000,000 fmol for Peptide 3; and 1,000, 10,000, 100,000 and 1,000,000 fmol for Peptide 8.

[2] = system: cardiac cells of the apoaequorin-expressing mice; test: Intracellular calcium ion increase (aequorin luminescence), heart of apoaequorin-expressing mice; type: cell-based, mouse; details: for intracellular calcium concentration in cardiac cells (RLU per second): added at 25 seconds; for luminescence in the heart: organ pieces, peptide final concentrations of 1 μmol/L and of 5 μmol/L
Description: (§1) A heart or blood vessel is collected from transgenic mice systemically expressing apoaequorin (WO02/010371) produced by introducing an apoaequorin gene expression vector into fertilized eggs. The obtained heart or blood vessel is cut finely into pieces, suspended in a medium containing coelenterazine, and then incubated to incorporate coelenterazine into the cells to form aequorin (a complex of apoaequorin and coelenterazine). Since aequorin luminesces upon binding to intracellular calcium ions, the relative luminescence level in cells before and after addition of a medium containing the peptide or a pharmaceutically acceptable salt thereof is measured in a luminometer every second over time and is used as an indicator of intracellular calcium ion concentration. Increase in the relative luminescence level due to addition of the peptide or pharmaceutically acceptable salt thereof confirms that the peptide or pharmaceutically acceptable salt thereof has the activity to increase intracellular calcium ion concentration.
(§2) Whether Peptides 1 to 5, 9 and 10 synthesized in Example 2 have the activity of increasing intracellular calcium ion concentration was investigated using the organs of transgenic mice introduced with the apoaequorin gene and systemically expressing apoaequorin (hereinafter referred to as apoaequorin-expressing mice). In apoaequorin-expressing mouse cells, light is emitted when apoaequorin binds to a calcium ion in the presence of the luminescent substrate coelenterazine and thus the intracellular calcium ion concentration can be monitored. Patent Document (WO02/010371) discloses the method for producing apoaequorin-expressing mice, method for evaluating biologically active substances that use biological samples derived from the mice, and experimental results of evaluating biologically active peptides using the mouse organs as shown below. […] Therefore, apoaequorin-expressing mice can be used in the evaluation of the physiological activities of novel peptides.
(§3) Apoaequorin-expressing mice were produced according to the method disclosed in Reference Example 4 of Patent Document (WO02/010371). The apoaequorin-expressing mice were sacrificed, individual organs including thymus, spleen, bone, blood vessel, heart, kidney, adrenal gland, pancreas, pituitary gland, and uterus, were removed; and each of the organs was cut into small cubes of approximately 1 to 2 mm^3. Next, in 5-mL tubes (Rohren-Tubes; manufactured by Sarstedt, No. 55.476), three portions of each of the prepared organs were added to 50 μL of a 10 μmol/L solution of coelenterazine (manufactured by Molecular Probes) dissolved in RPMI 1640 medium, and these were cultured at 37° C. for three hours. After culturing, RPMI 1640 medium was added, and then Peptides 1 to 5, 9 and 10 dissolved in RPMI 1640 medium were added 25 seconds after the addition of RPMI 1640 until each peptide had final concentrations of 1 μmol/L and of 5 μmol/L, and the relative luminescence levels were measured every second immediately after the addition of RPMI 1640 medium by using a luminometer (AutoLumat LB953, manufactured by Berthold).

thymus = test: Aequorin luminescence, thymus of apoaequorin-expressing mice; type: cell-based, mouse; details: organ pieces, peptide final concentrations of 1 μmol/L and of 5 μmol/L
Text: as §2, §3

pituitary gland = test: Aequorin luminescence, pituitary gland of apoaequorin-expressing mice; type: cell-based, mouse; details: organ pieces, peptide final concentrations of 1 μmol/L and of 5 μmol/L
Text: as §2, §3

uterus [3] = test: Aequorin luminescence, uterus of apoaequorin-expressing mice; type: cell-based, mouse; details: organ pieces, peptide final concentrations of 1 μmol/L and of 5 μmol/L
Text: as §2, §3

[4] = system: vascular cells of the apoaequorin-expressing mice; test: Intracellular calcium ion increase (aequorin luminescence), blood vessel of apoaequorin-expressing mice; type: cell-based, mouse; details: for intracellular calcium concentration in vascular cells (RLU per second): 5 μmol/L of peptide, added at 25 seconds; for luminescence in the blood vessel: organ pieces, peptide final concentrations of 1 μmol/L and of 5 μmol/L
Description: as §1, §2, §3

spleen = test: Aequorin luminescence, spleen of apoaequorin-expressing mice; type: cell-based, mouse; details: organ pieces, peptide final concentrations of 1 μmol/L and of 5 μmol/L
Text: as §2, §3

[5] = system: vascular cells of the apoaequorin-expressing mice; details: final concentration of 1 μmol/L; reported in WO02/010371; cited from earlier work
adrenal gland = details: final concentration of 1 μmol/L; reported in WO02/010371; cited from earlier work
uterus [6] = details: final concentration of 1 μmol/L; reported in WO02/010371; cited from earlier work
[7] = direct administration to the paraventricular nucleus of the hypothalamus of male rats; Non-Patent Document 6; cited from earlier work
[8] = target: antiserum showing an antibody titer of 9×10^5 (rabbit antiserum raised against the conjugate between Peptide 7 and KLH); test: competitive RIA against [^125I]-labeled Peptide 1
[9] = non-VGF peptides at 1, 10, and 100 pmol
[10] = VGF-derived peptides, sequentially diluted

NC(=O)CC[C@@H]1NC(=O)[C@H](Cc2ccccc2)NC(=O)[C@H](Cc2ccc(O)cc2)NC(=O)[C@@H](N)CSSC[C@@H](C(=O)N2CCC[C@H]2C(=O)N[C@@H](CCCN=C(N)N)C(=O)NCC(N)=O)NC(=O)[C@H](CC(N)=O)NC1=O [vasopressin]
inhibition of antiserum binding to [125I]-labeled Peptide 1 [1, 9]: none of the peptides showed inhibition

HYHHALPPSRHYP [Peptide 1]
intracellular calcium concentration in cardiac cells (RLU per second) ([2]; 1 μmol/L of peptide): increase of intracellular calcium concentration
luminescence in the heart [2]: luminescence was observed
luminescence in the thymus (thymus): luminescence was observed
luminescence in the pituitary gland (pituitary gland): luminescence was observed
luminescence in the uterus (uterus [3]): luminescence was observed
inhibition of antiserum binding to [125I]-labeled Peptide 1 [1, 10]: same degree of quantity-dependent inhibition
amount of peptide for 50% inhibition of the maximum binding level (50% B/B0) ([1]; antiserum diluted 9×10^5 folds, 4° C. for 40 hours): 7.5 fmol

Leu-enkephalin
inhibition of antiserum binding to [125I]-labeled Peptide 1 [1, 9]: none of the peptides showed inhibition

Met-enkephalin-Arg-Gly-Leu (YGGFMRGL) [non-VGF peptide]
inhibition of antiserum binding to [125I]-labeled Peptide 1 [1, 9]: none of the peptides showed inhibition

PAMP-20
inhibition of antiserum binding to [125I]-labeled Peptide 1 [1, 9]: none of the peptides showed inhibition

PHI-27 (HADGVFTSDFSKLLGQLSAKKYLESLM; ends and bridges not checked; UniProt P01282 81-107, looked up) [non-VGF peptide]
inhibition of antiserum binding to [125I]-labeled Peptide 1 [1, 9]: none of the peptides showed inhibition

Peptide 4: positions 586 to 615 of human VGF; same sequence as peptide V derived from bovine VGF (AQEEAEAEERRLQEQEELENYIEHVLLRRP; synthetic Peptide 4, positions 586-615 of human VGF, C-terminal VGF-derived peptide)
intracellular calcium concentration in vascular cells (RLU per second) [4]: increase of intracellular calcium concentration
luminescence in the blood vessel [4]: luminescence was observed
luminescence in the thymus (thymus): luminescence was observed
luminescence in the spleen (spleen): luminescence was observed
luminescence in the pituitary gland (pituitary gland): luminescence was observed

Peptide 8: positions 606 to 615 of the human VGF amino acid sequence (YIEHVLLRRP; synthetic Peptide 8, positions 606-615 of human VGF, C-terminal VGF-derived peptide)
inhibition of antiserum binding to [125I]-labeled Peptide 1 [1, 10]: did not show any inhibition

Peptide 9: positions 485 to 503 of the amino acid sequence of human VGF (NAPPEPVPPPRAAPAPTHV; synthetic Peptide 9, positions 485-503 of human VGF, C-terminal VGF-derived peptide)
intracellular calcium concentration in vascular cells (RLU per second) [4]: increase of intracellular calcium concentration
luminescence in the blood vessel [4]: luminescence was observed

Peptide 10: positions 533 to 552 of the amino acid sequence of human VGF (EEDEVYPPGPYHPFPNYIRP; synthetic Peptide 10, positions 533-552 of human VGF, C-terminal VGF-derived peptide)
intracellular calcium concentration in cardiac cells (RLU per second) ([2]; 1 μmol/L of peptide): increase of intracellular calcium concentration
luminescence in the heart [2]: luminescence was observed
intracellular calcium concentration in vascular cells (RLU per second) [4]: increase in the intracellular calcium concentration
luminescence in the blood vessel [4]: luminescence was observed

adrenomedulin
inhibition of antiserum binding to [125I]-labeled Peptide 1 [1, 9]: none of the peptides showed inhibition

angiotensin II (DRVYIHPF) [non-VGF peptide]
inhibition of antiserum binding to [125I]-labeled Peptide 1 [1, 9]: none of the peptides showed inhibition
luminescence in the blood vessels [5]: strong luminescence was observed
luminescence in the adrenal glands (adrenal gland): strong luminescence was observed
luminescence in the uterus (uterus [6]): strong luminescence was observed

calcitonin
inhibition of antiserum binding to [125I]-labeled Peptide 1 [1, 9]: none of the peptides showed inhibition

calcitonin receptor-stimulating peptide
inhibition of antiserum binding to [125I]-labeled Peptide 1 [1, 9]: none of the peptides showed inhibition

corticotropin-releasing factor
inhibition of antiserum binding to [125I]-labeled Peptide 1 [1, 9]: none of the peptides showed inhibition

neuromedin U-8
inhibition of antiserum binding to [125I]-labeled Peptide 1 [1, 9]: none of the peptides showed inhibition

rat VGF (556-576): partial peptide of rat VGF, positions 556-576
erection inducing activity [7]: this activity was not observed

rat VGF (577-617): partial peptide of rat VGF (556-617), positions 577-617 (HHPDLEAQARRAQEEADAEERRLQEQEELENYIEHVLLHRP; UniProt P20156 577-617, looked up, fragment)
erection inducing activity [7]: showed an erection inducing activity

rat VGF (588-617): partial peptide of rat VGF (556-617), positions 588-617 (AQEEADAEERRLQEQEELENYIEHVLLHRP; UniProt P20156 588-617, looked up, fragment)
erection inducing activity [7]: showed an erection inducing activity

rat VGF (599-617): partial peptide of rat VGF (556-617), positions 599-617 (LQEQEELENYIEHVLLHRP; UniProt P20156 599-617, looked up, fragment)
erection inducing activity [7]: showed an erection inducing activity

substance K
inhibition of antiserum binding to [125I]-labeled Peptide 1 [1, 9]: none of the peptides showed inhibition

B1: Peptide 5: positions 554 to 615 in the amino acid sequence of human VGF (peptide)
chain: TLQPPSALRRRHYHHALPPSRHYPGREAQARRAQEEAEAEERRLQEQEELENYIEHVLLRRP
modifications: synthetic Peptide 5, positions 554-615 of human VGF, C-terminal VGF-derived peptide
intracellular calcium concentration in cardiac cells (RLU per second) ([2]; 5 μmol/L of peptide): increase of intracellular calcium concentration
luminescence in the heart [2]: luminescence was observed

H-TLQPPSALRRRHYHHALPPSRHYPGREAQA-OH [Peptide 3 (SEQ ID NO: 2)]
fold amount required for the same degree of inhibition as Peptides 1 and 2 [8]: 10000 fold
